Test results: US8993628B2, “Synthetic ligands selective for LXRβ over LXRα, identification and methods of use thereof” (City of Hope, priority 2007, dated 2015)
Entries after “also recorded” stand apart in the source; their conditions may differ.

How the values were obtained:
[1] = system: human LXRβ; assay: GAL4-LXRβ reporter gene assay in transiently transfected CV-1 cells; format: cell-based; settings: for LXRβ-selectivity factor, fold activation of LXRβ/LXRα: 10 μM, CV-1 reporter gene assays; for activation of LXRβ: reporter gene assay, CV-1 cells
Method: (§1) Several potential LXR ligands were synthesized as described in Example 5. These compounds were assayed for activity on human LXRα and LXRβ using high-throughput reporter gene assays (e.g., reporter gene assays using Biomek automated workstation) in transiently transfected CV-1 cells.
(§2) In the reporter gene assay CV-1 cells were grown in Dulbecco's Modified Eagle's medium supplemented with 10% resin-charcoal stripped fetal bovine serum, 50 U/ml penicillin G and 50 μg/ml streptomycin sulfate (DMEM-FBS) at 37° C. in 5% CO2. One day prior to transfection, cells were plated to 50-80% confluence using phenol-red free DMEM-FBS. Cells were transiently transfected by lipofection with DOTAP. A GAL4 luciferase reporter construct (300 ng/10^5 cells) and cytomegalovirus driven expression vectors for GAL4-LXRα or GAL4-LXRβ (20-50 ng/10^5 cells) were added along with CMX-βgal (500 ng/10^5 cells) as an internal control. After 2 hours the liposomes were removed and cells treated for approximately 45 hours with phenol-red free DMEM-FBS containing the indicated LXR ligands. After exposure to ligand, the cells were harvested and assayed for luciferase and β-galactosidase activity. All points were assayed in triplicate. […] Use of reporter gene assays are known in the art and described for example in Sambrook et al., Molecular Cloning: A Laboratory Manual, 2nd Ed., Cold Spring Harbor Laboratory Press, Cold Spring Harbor, N.Y.

[2] = target: T1, human LXRβ (Homo sapiens, UniProt P55055); assay: as above; format: cell-based; settings: reporter gene assay, CV-1 cells; FIG. 2 left; receptor subtype not stated
T1 construct: EC50; other: reporter gene assay, CV-1 cells
T1 sequence (P55055 222-460): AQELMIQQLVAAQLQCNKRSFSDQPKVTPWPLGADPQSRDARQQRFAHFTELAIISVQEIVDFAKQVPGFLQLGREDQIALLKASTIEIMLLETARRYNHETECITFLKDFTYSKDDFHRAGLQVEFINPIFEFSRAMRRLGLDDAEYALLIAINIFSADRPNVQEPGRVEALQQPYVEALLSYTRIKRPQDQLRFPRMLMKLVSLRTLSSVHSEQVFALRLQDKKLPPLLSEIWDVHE
Method: as §1, §2

[3] = system: SREBP1c; assay: Gene expression analysis of endogenous LXR target gene SREBP1c in H4 cells; format: cell-based, human; settings: compared with T0901317
Method: The effect of various concentrations of LXRβ-selective compounds on endogenous LXR target genes in H4 cells was examined. […] Induction of ABCG1, another lipid-transporter regulated by LXR, was also observed in H4 cells treated with T0901317, DY136 and DY142. […] Gene expression analysis was conducted to measure the endogenous LXR target genes. Briefly, cells were plated in a 6-well plate at the following densities/well: 0.35 million H4 cells (DMEM, 10% FBS), 0.5 million CCF-STTG1 (RPMI, 15% FBS), 1 million SH-SY5Y (RPMI, 15% FBS), or 1 million THP (RPMI, 15% FBS+100 nM TPA for 3 days to differentiate). The cells were treated the next day in serum-free DMEM supplemented with insulin, transferrin, and selenium and apoA1 (10 μg/ml). The media was harvested 24 hours later, mixed with a protease inhibitor cocktail (Roche), debris was pelleted (14000 g, 5 min.) and the supernatant saved for Aβ measurements (below). The cells were then rinsed with PBS and lysed with Trizol reagent. RNA isolation and cDNA synthesis (OmniScript, Qiagen) were as per manufacturer's protocol. […]

[4] = system: ABCG1; assay: Gene expression analysis of endogenous LXR target gene ABCG1 in H4 cells; format: cell-based, human
Method: (§3) The effect of various concentrations of LXRβ-selective compounds on endogenous LXR target genes in H4 cells was examined. […] Induction of ABCG1, another lipid-transporter regulated by LXR, was also observed in H4 cells treated with T0901317, DY136 and DY142. […] Gene expression analysis was conducted to measure the endogenous LXR target genes. Briefly, cells were plated in a 6-well plate at the following densities/well: 0.35 million H4 cells (DMEM, 10% FBS), 0.5 million CCF-STTG1 (RPMI, 15% FBS), 1 million SH-SY5Y (RPMI, 15% FBS), or 1 million THP (RPMI, 15% FBS+100 nM TPA for 3 days to differentiate). The cells were treated the next day in serum-free DMEM supplemented with insulin, transferrin, and selenium and apoA1 (10 μg/ml). The media was harvested 24 hours later, mixed with a protease inhibitor cocktail (Roche), debris was pelleted (14000 g, 5 min.) and the supernatant saved for Aβ measurements (below). The cells were then rinsed with PBS and lysed with Trizol reagent. RNA isolation and cDNA synthesis (OmniScript, Qiagen) were as per manufacturer's protocol. Gene expression analysis was done in triplicate with 30 ng of cDNA and the following primer-sets: ABCA1, ABCG1, SREBP1c, GAPDH, HPRT (either SYBR Green or FAM-labeled LUX primers (Invitrogen). None of these primers produce primer-dimers or amplified genomic DNA (all primer-sets are intron spanning). The signal for each target gene was normalized to GAPDH and/or HPRT.

[5] = system: ABCA1; assay: Gene expression analysis of endogenous LXR target gene ABCA1 in H4 cells; format: cell-based, human; settings: for induction of ABCA1 expression: H4 neuroglioma cells, compared with T0901317
Method: as §3

[6] = system: apoE; assay: Gene expression analysis of apoE in H4 cells; format: cell-based, human; settings: H4 neuroglioma cells
[7] = system: human LXRα; assay: GAL4-LXRα reporter gene assay in transiently transfected CV-1 cells; format: cell-based
Method: as §1
In the reporter gene assay CV-1 cells were grown in Dulbecco's Modified Eagle's medium supplemented with 10% resin-charcoal stripped fetal bovine serum, 50 U/ml penicillin G and 50 μg/ml streptomycin sulfate (DMEM-FBS) at 37° C. in 5% CO2. One day prior to transfection, cells were plated to 50-80% confluence using phenol-red free DMEM-FBS. Cells were transiently transfected by lipofection with DOTAP. A GAL4 luciferase reporter construct (300 ng/10^5 cells) and cytomegalovirus driven expression vectors for GAL4-LXRα or GAL4-LXRβ (20-50 ng/10^5 cells) were added along with CMX-βgal (500 ng/10^5 cells) as an internal control. After 2 hours the liposomes were removed and cells treated for approximately 45 hours with phenol-red free DMEM-FBS containing the indicated LXR ligands. After exposure to ligand, the cells were harvested and assayed for luciferase and β-galactosidase activity. All points were assayed in triplicate. […]

[8] = system: LXR; settings: cited from earlier work
[9] = system: primary neuronal and astrocyte cultures; settings: cited from earlier work
[10] = system: transgenic mice expressing human APPswe; settings: one-week treatment; cited from earlier work
[11] = system: Aβ40; assay: Aβ40 secreted into the media of H4 cells (ELISA kit); format: cell-based, human; settings: 1 μM, 24 hours
Method: In order to confirm the effects of LXR activation on Aβ production in human cells, human H4 neuroglioma cells were treated with the pan-LXR agonist T0901317 (1 μM) for 24 hours and measured the amount of total cellular cholesterol remaining in the cells and the amount of Aβ40 secreted into the media (FIG. 1). As expected, T0901317 reduced both intracellular cholesterol levels as well as secreted Aβ40. […] Also as expected, T0901317 induced a greater than 50-fold increase in ABCA1 expression in H4 cells (FIG. 2). […] To quantify Aβ production, cells were cultured as described above (gene expression analysis). Media was added to the diluent Buffer provided with the kit and assayed according to the manufacturer's instructions (Biosource).

[12] = system: human H4 neuroglioma cells; assay: Quantification of total cellular cholesterol in H4 cells (GC-MS); format: cell-based; settings: 1 μM, 24 hours
Method: In order to confirm the effects of LXR activation on Aβ production in human cells, human H4 neuroglioma cells were treated with the pan-LXR agonist T0901317 (1 μM) for 24 hours and measured the amount of total cellular cholesterol remaining in the cells and the amount of Aβ40 secreted into the media (FIG. 1). As expected, T0901317 reduced both intracellular cholesterol levels as well as secreted Aβ40. […] Also as expected, T0901317 induced a greater than 50-fold increase in ABCA1 expression in H4 cells (FIG. 2). […] For quantification of total cellular cholesterol, H4 cells are seeded in 12-well plates at 70,000 per well. Cells are treated with DMSO (vehicle) or T0901317 in serum-free DMEM for 24 hours in presence of 10 μg/ml apoA1. Cells were lysed with 1N NaOH in 90% ethanol and 10 μM of 5α-cholestane as an internal control tracer. Cholesterol esters were hydrolyzed by incubation at 65° C. for 2 hours. Equal volume of water is added to the samples, and extracted twice with 2 volumes of hexane.

[13] = system: C57BL/6 mice; settings: 1 week of treatment; cited from earlier work
[14] = system: mouse Neuro2A cells expressing human APPswe; settings: cited from earlier work

For `O=C(O)Cc1cccc(OCCCN(Cc2cccc(C(F)(F)F)c2F)CC(c2ccccc2)c2ccccc2)c1` [DY136, (3-{3-[(2,2-Diphenyl-ethyl)-(2-fluoro-3-trifluoromethyl-benzyl)-amino]-propoxy}-phenyl)-acetic acid], the “LXRβ-selectivity factor, fold activation of LXRβ/LXRα” value [1] was 3.4, the EC50 [2] was 1000 to 3000 nM and the “induction of SREBP1c” value [3] was “little effect; also recorded: only half that observed with T0901317”. For the same compound, the “induction of ABCG1” value [4] was “observed”, the “induction of ABCA1 expression” value [5] was “expected activation; also recorded: to a level nearly that of the pan-agonist T0901317” and the ApoE expression [6] was “increased”.
For `O=C(O)Cc1cccc(OCCCN(Cc2cccc(C(F)(F)F)c2)CC(c2ccccc2)c2ccccc2)c1` [DY142, (3-{3-[(2,2-Diphenyl-ethyl)-(3-trifluoromethyl-benzyl)-amino]-propoxy}-phenyl)-acetic acid], the “LXRβ-selectivity factor, fold activation of LXRβ/LXRα” value [1] was 6.5, the EC50 [2] was 1000 to 3000 nM and the “induction of SREBP1c” value [3] was “little effect; also recorded: only half that observed with T0901317”. The “induction of ABCG1” value [4] was “observed”, the “induction of ABCA1 expression” value [5] was “expected activation; also recorded: to a level nearly that of the pan-agonist T0901317” and the ApoE expression [6] was “increased by all three ligands, although the effects were slightly lower”.
In the case of `O=C(O)Cc1cccc(OCCCN(Cc2cccc(C(F)(F)F)c2Cl)CC(c2ccccc2)c2ccccc2)c1` [GW3965], the “activation of LXRα” value [7] is listed as “activated”, the “association of LXR with a coactivator peptide derived from SRC-1” value [8] is listed as “promotes association” and the “LXRβ-selectivity factor, fold activation of LXRβ/LXRα” value [1] is listed as 2.2. The “activation of LXRβ” value [1] was “activated”.
For `O=S(=O)(c1ccccc1)N(CC(F)(F)F)c1ccc(C(O)(C(F)(F)F)C(F)(F)F)cc1` [T0901317], the cholesterol efflux [9] is listed as “enhanced cholesterol efflux”, the “activation of LXRα” value [7] is listed as “activated” and the “LXRβ-selectivity factor, fold activation of LXRβ/LXRα” value [1] is listed as 1.7. The “activation of LXRβ” value [1] was “activated”, the “Aβ40 and Aβ42 in the brain” value [10] was “significant decrease” and the “secreted Aβ40” value [11] was “reduced”. The “intracellular cholesterol levels (total cellular cholesterol)” value [12] was “reduced”, the “induction of ABCG1” value [4] was “observed” and the hypertriglyceridemia [13] was “induces severe hypertriglyceridemia”. The “increase in ABCA1 expression” value ([5]; H4 cells) was “greater than 50 fold”, the ApoE expression [6] was “increased” and the Aβ production [14] was “decreased”.
